Laboratory results published in US4885307A, “Derivatives of 1-arylsulphonyl-1,5-dihydro-2H-pyrrol-2-one, and compositions containing them” (Roussel Uclaf, priority 1987, dated 1989).

Tested on: male mice (Charles Rivers CD1)
Assay: Learning and memorizing: anti-amnesiac effect on electric shock-induced retrograde amnesia (two-compartment luminous/dark box avoidance)
Format: in vivo
Settings: for Percentage increase in latency time in comparison with the controls: 3 hours after treatment, * = statistically different in comparison with controls; for anti-amnesic activity: at doses between 50 and 200 mg/kg, oral route
From the text: There were used male mice (Charles Rivers CD1) weighing 25-30 g. The animals were placed in the luminous part of a box with two compartments communicating by an opening [F. Barzaghi and G. Galliani, Brit. J. Pharmacol. 86, p.
At the instant when the mouse passes from the luminous compartment to the dark compartment, the opening closes and it is immediately punished by an electric discharge to the paws. The animal submitted to this procedure learns to memorize the punishment. In fact, if it is put back in the luminous compartment, it will thus avoid crossing the opening and reentering the dark compartment.
In order to induce a retrograde amnesia, the animals are submitted immediately after learning to an electric shock. After the electric shock, the products are administered by oral route at different doses.
There were used from 10 to 50 animals per dose.
The anti-amnesiac effect of the products is evaluated 3 hours after the treatment, using the same procedure as that utilized for the acquisition.
The time taken by the animal to return to the dark chamber (time limit 180 seconds) is used as evaluation parameter.
The active products are those which cause a significant increase in the latency time with a bell-shaped dose-response curve.
The results are expressed as percentages of the increase of the latency time in comparison with the corresponding controls.

| SMILES | Percentage increase in latency time in comparison with the controls (50 mg/kg per os) | Percentage increase in latency time in comparison with the controls (100 mg/kg per os) | Percentage increase in latency time in comparison with the controls (200 mg/kg per os) | anti-amnesic activity |
| --- | --- | --- | --- | --- |
| CCCCOC1C=CC(=O)N1S(=O)(=O)c1ccccc1 (stereo not drawn) [Example 4, 1-benzenesulphonyl-5-n-butoxy-1,5-dihydro-2H-pyrrol-2-one] | 54% | 96% | 79% | have shown an anti-amnesic activity |
| NC(=O)CN1CCCC1=O [PIRACETAM, reference compound] | 10% | 48% | 20% | – |
| CCCCOC1C=CC(=O)N1S(=O)(=O)c1cccc(C(F)(F)F)c1 (stereo not drawn) [Example 12, 1-(3-trifluoromethyl-benzenesulphonyl)-5-n-butyloxy-1,5-dihydro-2H-pyrrol-2-one] | 20% | 75% | 92% | have shown an anti-amnesic activity |
| CCCCCOC1C=CC(=O)N1S(=O)(=O)c1ccccc1 (stereo not drawn) [Example 6, 1-benzenesulphonyl-1,5-dihydro-5-n-pentyloxy-2H-pyrrol-2-one] | 73% | 92% | 76% | have shown an anti-amnesic activity |
